# Reference: patent US8987312B2, “Alpha-keto heterocycles as FAAH inhibitors” (The Scripps Research Institute, priority 2008, dated 2015)
# Test system: not given
# Assay: not given
# Conditions: rats; cited from earlier work
row,SMILES,analgesic effect
1,Cc1nc(-c2ccccc2)c(-c2ccccc2)n1CCCCCCNC(=O)Oc1ccccc1F [BMS-1],analgesic effect

# Test system: not given
# Assay: not given
# Conditions: rat; cited from earlier work
row,SMILES,"analgesic efficacy / activity, hot plate"
1,O=C(CCCCCCc1ccccc1)c1ncc(-c2ccccn2)o1 [OL-135],analgesic activity
2,NC(=O)c1cccc(-c2cccc(OC(=O)NC3CCCCC3)c2)c1 [URB-597],analgesic efficacy

# Test system: not given
# Assay: not given
# Conditions: rats; cited from earlier work
# Remark: another data set of the same source
row,SMILES,efficacy in model of anxiety
1,NC(=O)c1cccc(-c2cccc(OC(=O)NC3CCCCC3)c2)c1 [URB-597],efficacy

# Molecular target: T1, triacylglycerol hydrolase (TGH) (Mus musculus, UniProt Q8VCT4)
# T1 construct: with FP-Rh in brain and heart membrane proteome; from tissue; host or cells: brain and heart membrane proteome
# T1 sequence (Q8VCT4 19-565): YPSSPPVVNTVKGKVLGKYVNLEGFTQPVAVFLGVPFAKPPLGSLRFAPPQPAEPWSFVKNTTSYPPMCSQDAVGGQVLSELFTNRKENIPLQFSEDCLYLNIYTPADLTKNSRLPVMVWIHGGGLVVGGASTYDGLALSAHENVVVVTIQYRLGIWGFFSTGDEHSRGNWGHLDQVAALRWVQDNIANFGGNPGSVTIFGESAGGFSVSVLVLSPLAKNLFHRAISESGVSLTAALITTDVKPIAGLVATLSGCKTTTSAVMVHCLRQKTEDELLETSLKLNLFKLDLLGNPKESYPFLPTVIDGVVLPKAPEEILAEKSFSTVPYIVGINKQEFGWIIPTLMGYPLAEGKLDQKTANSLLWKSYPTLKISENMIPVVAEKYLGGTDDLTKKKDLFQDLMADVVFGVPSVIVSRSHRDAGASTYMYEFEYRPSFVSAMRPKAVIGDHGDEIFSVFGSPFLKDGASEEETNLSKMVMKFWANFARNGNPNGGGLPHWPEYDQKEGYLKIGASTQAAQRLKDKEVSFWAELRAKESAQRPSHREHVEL
# Assay: Activity based protein profiling (proteome-wide selectivity screening, FP-Rh), TGH
# Type: biochemical
# Conditions: Table 4; activity based protein profiling
# Description: (§1) Enzyme targets such as FAAH, KIAA1363, and TGH are labeled at the left margin.
row,IC50 [nM],SMILES
1,400,"O=C(CCCCCCc1ccccc1)c1noc(-c2ccccn2)n1 [10b, 7-Phenyl-1-(5-(pyridin-2-yl)-1,2,4-oxadiazol-3-yl)-heptan-1-one]"
2,30,"O=C(CCCCCCc1ccccc1)c1nc(-c2ccccn2)no1 [9b, 7-Phenyl-1-(3-(pyridin-2-yl)-1,2,4-oxadiazol-5-yl)-heptan-1-one]"

# Same assay, conditions: Table 4; ratio TGH IC50 / FAAH IC50 (fold selectivity for FAAH)
row,TGH selectivity (value in parentheses),SMILES
1,60,"O=C(CCCCCCc1ccccc1)c1noc(-c2ccccn2)n1 [10b, 7-Phenyl-1-(5-(pyridin-2-yl)-1,2,4-oxadiazol-3-yl)-heptan-1-one]"
2,10,"O=C(CCCCCCc1ccccc1)c1nc(-c2ccccn2)no1 [9b, 7-Phenyl-1-(3-(pyridin-2-yl)-1,2,4-oxadiazol-5-yl)-heptan-1-one]"

# Test system: not given
# Assay: not given
# Conditions: rats; cited from earlier work
# Remark: another data set of the same source
row,SMILES,analgesic effect
1,Cc1nc(-c2ccccc2)c(-c2ccccc2)n1CCCCCCNC(=O)Oc1ccccc1F [BMS-1],analgesic effect

# Molecular target: T2, purified recombinant rat FAAH (Rattus norvegicus, UniProt P97612)
# T2 construct: The truncated rat FAAH (rFAAH) was expressed in E. coli and purified as described; made in house; host or cells: Escherichia coli
# T2 sequence (P97612 30-579 limits assumed): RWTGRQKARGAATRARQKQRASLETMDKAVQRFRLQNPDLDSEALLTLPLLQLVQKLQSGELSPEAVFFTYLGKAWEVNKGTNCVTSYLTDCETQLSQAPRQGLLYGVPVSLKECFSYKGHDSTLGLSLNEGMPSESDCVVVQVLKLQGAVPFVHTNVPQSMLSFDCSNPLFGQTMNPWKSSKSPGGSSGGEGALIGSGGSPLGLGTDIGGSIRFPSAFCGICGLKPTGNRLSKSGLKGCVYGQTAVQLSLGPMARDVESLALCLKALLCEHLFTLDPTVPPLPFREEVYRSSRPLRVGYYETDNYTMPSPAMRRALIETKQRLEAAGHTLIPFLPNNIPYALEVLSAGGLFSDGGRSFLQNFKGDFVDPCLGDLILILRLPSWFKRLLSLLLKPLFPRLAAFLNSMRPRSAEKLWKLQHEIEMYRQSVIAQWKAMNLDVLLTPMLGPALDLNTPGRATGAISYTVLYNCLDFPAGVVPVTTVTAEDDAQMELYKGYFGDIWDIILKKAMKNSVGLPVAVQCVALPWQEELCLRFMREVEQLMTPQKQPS
# Assay: FAAH inhibition enzyme assay (14C-oleamide hydrolysis, Dixon plot), rat enzyme
# Type: biochemical
# Conditions: Table 2; rat FAAH, pH 9 assay conditions; read-out: Ki
# Description: (§2) The purified recombinant rFAAH was used in the inhibition assays unless otherwise indicated.
# (§3) The ^14C-labeled oleamide (substrate) and oleic acid (product) were extracted with EtOAc and analyzed by TLC.
row,Ki [µM],SMILES
1,0.0011,"O=C(CCCCCCc1ccccc1)c1noc(-c2ccccn2)n1 [10b, 7-Phenyl-1-(5-(pyridin-2-yl)-1,2,4-oxadiazol-3-yl)-heptan-1-one]"
2,0.00034,"O=C(CCCCCCc1ccccc1)c1nc(-c2ccccn2)no1 [9b, 7-Phenyl-1-(3-(pyridin-2-yl)-1,2,4-oxadiazol-5-yl)-heptan-1-one]"

# Same assay, conditions: Table 3; rat FAAH; read-out: Ki, μM (rat)
row,Ki [µM],SMILES
1,0.0011,"O=C(CCCCCCc1ccccc1)c1noc(-c2ccccn2)n1 [10b, 7-Phenyl-1-(5-(pyridin-2-yl)-1,2,4-oxadiazol-3-yl)-heptan-1-one]"
2,0.00034,"O=C(CCCCCCc1ccccc1)c1nc(-c2ccccn2)no1 [9b, 7-Phenyl-1-(3-(pyridin-2-yl)-1,2,4-oxadiazol-5-yl)-heptan-1-one]"

# Same assay, conditions: Table 4; read-out: FAAH Ki
row,Ki [µM],SMILES
1,0.0011,"O=C(CCCCCCc1ccccc1)c1noc(-c2ccccn2)n1 [10b, 7-Phenyl-1-(5-(pyridin-2-yl)-1,2,4-oxadiazol-3-yl)-heptan-1-one]"
2,0.00034,"O=C(CCCCCCc1ccccc1)c1nc(-c2ccccn2)no1 [9b, 7-Phenyl-1-(3-(pyridin-2-yl)-1,2,4-oxadiazol-5-yl)-heptan-1-one]"

# Test system: FAAH
# Assay: not given
# Conditions: cited from earlier work
row,SMILES,FAAH inhibition (in words)
1,O=C(CCCCCCc1ccccc1)c1ncc(-c2ccccn2)o1 [OL-135],potent inhibitor

# Molecular target: T3, recombinant human fatty acid amide hydrolase (Homo sapiens, UniProt O00519)
# T3 construct: The full-length human FAAH (hFAAH) was expressed in COS-7 cells as described; expressed in transfected cells; host or cells: COS-7
# T3 sequence (O00519 1-579): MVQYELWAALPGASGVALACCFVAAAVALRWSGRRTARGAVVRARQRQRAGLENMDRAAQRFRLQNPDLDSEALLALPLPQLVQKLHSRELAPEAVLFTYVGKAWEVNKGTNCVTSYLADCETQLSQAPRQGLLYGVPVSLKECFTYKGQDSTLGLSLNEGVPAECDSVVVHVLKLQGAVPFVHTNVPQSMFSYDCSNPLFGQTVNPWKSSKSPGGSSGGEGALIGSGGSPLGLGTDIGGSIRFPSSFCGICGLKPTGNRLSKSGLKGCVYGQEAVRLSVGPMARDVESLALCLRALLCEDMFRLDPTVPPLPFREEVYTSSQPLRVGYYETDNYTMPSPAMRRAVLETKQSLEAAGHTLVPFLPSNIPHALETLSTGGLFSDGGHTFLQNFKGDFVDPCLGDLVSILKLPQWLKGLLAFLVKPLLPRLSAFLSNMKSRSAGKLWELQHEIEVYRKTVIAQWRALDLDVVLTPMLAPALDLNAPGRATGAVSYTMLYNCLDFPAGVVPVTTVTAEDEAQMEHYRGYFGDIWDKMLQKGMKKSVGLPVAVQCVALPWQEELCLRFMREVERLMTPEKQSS
# Assay: FAAH inhibition enzyme assay, human enzyme (COS-7 lysate)
# Type: biochemical
# Conditions: Table 3
# Description: as §2, §3
row,Ki [µM],SMILES
1,0.016,"O=C(CCCCCCc1ccccc1)c1noc(-c2ccccn2)n1 [10b, 7-Phenyl-1-(5-(pyridin-2-yl)-1,2,4-oxadiazol-3-yl)-heptan-1-one]"
2,0.00092,"O=C(CCCCCCc1ccccc1)c1nc(-c2ccccn2)no1 [9b, 7-Phenyl-1-(3-(pyridin-2-yl)-1,2,4-oxadiazol-5-yl)-heptan-1-one]"

# Molecular target: T4, KIAA1363 (Mus musculus, UniProt Q8BLF1)
# T4 construct: with FP-Rh in brain and heart membrane proteome; from tissue; host or cells: brain and heart membrane proteome
# T4 sequence (Q8BLF1 1-408): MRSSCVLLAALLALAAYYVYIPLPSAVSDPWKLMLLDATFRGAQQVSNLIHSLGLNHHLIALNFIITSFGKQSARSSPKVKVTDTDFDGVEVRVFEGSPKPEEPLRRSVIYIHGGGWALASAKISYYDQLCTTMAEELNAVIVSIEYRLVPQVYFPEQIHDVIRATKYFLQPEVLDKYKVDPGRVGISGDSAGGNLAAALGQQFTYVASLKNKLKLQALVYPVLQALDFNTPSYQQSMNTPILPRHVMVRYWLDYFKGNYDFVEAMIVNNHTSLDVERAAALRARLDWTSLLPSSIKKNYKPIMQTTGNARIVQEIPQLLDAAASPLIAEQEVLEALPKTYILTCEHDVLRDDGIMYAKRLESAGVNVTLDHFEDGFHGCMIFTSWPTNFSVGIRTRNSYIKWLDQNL
# Assay: Activity based protein profiling (proteome-wide selectivity screening, FP-Rh), KIAA1363
# Type: biochemical
# Conditions: Table 4; activity based protein profiling
# Description: as §1
row,IC50 [nM],SMILES
1,> 100000,"O=C(CCCCCCc1ccccc1)c1noc(-c2ccccn2)n1 [10b, 7-Phenyl-1-(5-(pyridin-2-yl)-1,2,4-oxadiazol-3-yl)-heptan-1-one]"
2,30000,"O=C(CCCCCCc1ccccc1)c1nc(-c2ccccn2)no1 [9b, 7-Phenyl-1-(3-(pyridin-2-yl)-1,2,4-oxadiazol-5-yl)-heptan-1-one]"

# Same assay, conditions: Table 4; ratio KIAA1363 IC50 / FAAH IC50 (fold selectivity for FAAH)
row,KIAA1363 selectivity (value in parentheses),SMILES
1,> 14000,"O=C(CCCCCCc1ccccc1)c1noc(-c2ccccn2)n1 [10b, 7-Phenyl-1-(5-(pyridin-2-yl)-1,2,4-oxadiazol-3-yl)-heptan-1-one]"
2,10000,"O=C(CCCCCCc1ccccc1)c1nc(-c2ccccn2)no1 [9b, 7-Phenyl-1-(3-(pyridin-2-yl)-1,2,4-oxadiazol-5-yl)-heptan-1-one]"

# Test system: not given
# Assay: not given
# Conditions: rats; cited from earlier work
# Remark: another data set of the same source
row,SMILES,"analgesic activity, tail emersion"
1,O=C(CCCCCCc1ccccc1)c1ncc(-c2ccccn2)o1 [OL-135],analgesic activity

# Molecular target: T5, FAAH (Mus musculus, UniProt O08914)
# T5 construct: with FP-Rh in brain and heart membrane proteome; from tissue; host or cells: brain and heart membrane proteome
# T5 sequence (O08914 1-579): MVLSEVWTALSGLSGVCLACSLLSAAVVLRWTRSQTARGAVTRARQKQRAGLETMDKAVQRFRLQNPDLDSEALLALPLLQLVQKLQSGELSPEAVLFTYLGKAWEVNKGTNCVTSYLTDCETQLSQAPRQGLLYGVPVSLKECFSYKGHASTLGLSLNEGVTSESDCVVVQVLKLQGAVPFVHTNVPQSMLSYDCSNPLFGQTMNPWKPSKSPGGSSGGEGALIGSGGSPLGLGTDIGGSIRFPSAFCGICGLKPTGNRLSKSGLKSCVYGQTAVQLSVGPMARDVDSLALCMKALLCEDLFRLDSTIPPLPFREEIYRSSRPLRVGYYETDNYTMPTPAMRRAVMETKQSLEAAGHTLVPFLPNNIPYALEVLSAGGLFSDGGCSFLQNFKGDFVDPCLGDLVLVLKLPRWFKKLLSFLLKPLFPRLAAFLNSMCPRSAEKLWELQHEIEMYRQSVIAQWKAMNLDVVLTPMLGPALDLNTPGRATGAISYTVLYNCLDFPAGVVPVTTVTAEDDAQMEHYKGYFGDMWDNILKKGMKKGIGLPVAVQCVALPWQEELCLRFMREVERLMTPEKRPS
# Assay: Activity based protein profiling (proteome-wide selectivity screening, FP-Rh), FAAH
# Type: biochemical
# Conditions: Table 4
# Description: as §1
row,IC50 [nM],SMILES
1,7,"O=C(CCCCCCc1ccccc1)c1noc(-c2ccccn2)n1 [10b, 7-Phenyl-1-(5-(pyridin-2-yl)-1,2,4-oxadiazol-3-yl)-heptan-1-one]"
2,3,"O=C(CCCCCCc1ccccc1)c1nc(-c2ccccn2)no1 [9b, 7-Phenyl-1-(3-(pyridin-2-yl)-1,2,4-oxadiazol-5-yl)-heptan-1-one]"
